“And” between values parts separate entries of the source, which are not always exact repeats. Equal entries are not always repeated.
Assay: xn = mol fraction of the nth substance listed
Conditions: Liquid, Vibrating tube method

CCCCCCCCC [nonane] + CCCO
mass density
Conditions	313.15 K	323.15 K
100 kPa, x2 = 0.1231	–	696.08 kg/m3
100 kPa, x2 = 0.2315	–	700.11 kg/m3
100 kPa, x2 = 0.3229	–	704.16 kg/m3
100 kPa, x2 = 0.4272	–	709.94 kg/m3
100 kPa, x2 = 0.7021	741.23 kg/m3	732.13 kg/m3
100 kPa, x2 = 0.8941	766.16 kg/m3	757.59 kg/m3
1000 kPa, x2 = 0.7021	742.27 kg/m3	732.62 kg/m3
1010 kPa, x2 = 0.1231	–	696.28 kg/m3
1010 kPa, x2 = 0.2315	–	700.63 kg/m3
1010 kPa, x2 = 0.3229	–	704.67 kg/m3
1010 kPa, x2 = 0.4272	–	710.4 kg/m3
1010 kPa, x2 = 0.8941	–	758.12 kg/m3
1020 kPa, x2 = 0.8941	767.45 kg/m3	–
2000 kPa, x2 = 0.1231	–	697.28 kg/m3
2000 kPa, x2 = 0.8941	768.33 kg/m3	759.05 kg/m3
2010 kPa, x2 = 0.2315	–	701.62 kg/m3
2010 kPa, x2 = 0.3229	–	705.65 kg/m3
2010 kPa, x2 = 0.4272	–	711.37 kg/m3
2010 kPa, x2 = 0.7021	743.17 kg/m3	733.6 kg/m3
3000 kPa, x2 = 0.7021	744.09 kg/m3	–
3010 kPa, x2 = 0.2315	–	702.6 kg/m3
3010 kPa, x2 = 0.3229	–	706.63 kg/m3
3010 kPa, x2 = 0.4272	–	712.36 kg/m3
3010 kPa, x2 = 0.8941	769.22 kg/m3	760 kg/m3
3020 kPa, x2 = 0.1231	–	698.25 kg/m3
3020 kPa, x2 = 0.7021	–	734.56 kg/m3
4000 kPa, x2 = 0.2315	–	703.57 kg/m3
4000 kPa, x2 = 0.4272	–	713.31 kg/m3
4000 kPa, x2 = 0.8941	–	760.92 kg/m3
4010 kPa, x2 = 0.1231	–	699.22 kg/m3
4010 kPa, x2 = 0.3229	–	707.6 kg/m3
4010 kPa, x2 = 0.7021	745 kg/m3	–
4010 kPa, x2 = 0.8941	770.09 kg/m3	–
4020 kPa, x2 = 0.7021	–	735.53 kg/m3
5010 kPa, x2 = 0.1231	–	700.18 kg/m3
5010 kPa, x2 = 0.2315	–	704.52 kg/m3
5010 kPa, x2 = 0.4272	–	714.28 kg/m3
5010 kPa, x2 = 0.7021	745.89 kg/m3	736.47 kg/m3
5010 kPa, x2 = 0.8941	770.95 kg/m3	761.84 kg/m3
5020 kPa, x2 = 0.3229	–	708.55 kg/m3
6000 kPa, x2 = 0.3229	689.86 kg/m3	–
6000 kPa, x2 = 0.8941	771.82 kg/m3	–
6010 kPa, x2 = 0.1231	–	701.13 kg/m3
6010 kPa, x2 = 0.2315	670.36 kg/m3	705.46 kg/m3
6010 kPa, x2 = 0.3229	–	709.51 kg/m3
6010 kPa, x2 = 0.4272	717.03 kg/m3	715.23 kg/m3
6010 kPa, x2 = 0.7021	–	737.41 kg/m3
6010 kPa, x2 = 0.8941	–	762.78 kg/m3
6020 kPa, x2 = 0.1231	666.76 kg/m3	–
6020 kPa, x2 = 0.7021	746.77 kg/m3	–
7000 kPa, x2 = 0.1231	667.99 kg/m3	–
7000 kPa, x2 = 0.3229	691.15 kg/m3	–
7000 kPa, x2 = 0.8941	772.68 kg/m3	763.69 kg/m3
7010 kPa, x2 = 0.3229	–	710.46 kg/m3
7010 kPa, x2 = 0.7021	747.64 kg/m3	–
7020 kPa, x2 = 0.1231	–	702.05 kg/m3
7020 kPa, x2 = 0.2315	671.62 kg/m3	706.4 kg/m3
7020 kPa, x2 = 0.4272	718.27 kg/m3	716.18 kg/m3
7020 kPa, x2 = 0.7021	–	738.36 kg/m3
8000 kPa, x2 = 0.1231	669.23 kg/m3	–
8000 kPa, x2 = 0.3229	692.44 kg/m3	–
8010 kPa, x2 = 0.3229	–	711.38 kg/m3
8010 kPa, x2 = 0.4272	719.48 kg/m3	717.13 kg/m3
8010 kPa, x2 = 0.7021	748.52 kg/m3	739.3 kg/m3
8010 kPa, x2 = 0.8941	773.53 kg/m3	764.6 kg/m3
8020 kPa, x2 = 0.1231	–	702.98 kg/m3
8020 kPa, x2 = 0.2315	672.88 kg/m3	707.34 kg/m3
9000 kPa, x2 = 0.1231	670.48 kg/m3	–
9000 kPa, x2 = 0.2315	–	708.26 kg/m3
9000 kPa, x2 = 0.7021	749.39 kg/m3	740.23 kg/m3
9000 kPa, x2 = 0.8941	774.38 kg/m3	–
9010 kPa, x2 = 0.1231	–	703.89 kg/m3
9010 kPa, x2 = 0.3229	693.71 kg/m3	–
9010 kPa, x2 = 0.4272	720.71 kg/m3	718.05 kg/m3
9020 kPa, x2 = 0.2315	674.14 kg/m3	–
9020 kPa, x2 = 0.3229	–	712.32 kg/m3
9020 kPa, x2 = 0.8941	–	765.49 kg/m3
10000 kPa, x2 = 0.1231	–	704.81 kg/m3
10000 kPa, x2 = 0.8941	–	766.39 kg/m3
10010 kPa, x2 = 0.2315	675.41 kg/m3	–
10010 kPa, x2 = 0.3229	–	713.24 kg/m3
10010 kPa, x2 = 0.4272	721.93 kg/m3	718.99 kg/m3
10010 kPa, x2 = 0.7021	750.23 kg/m3	741.14 kg/m3
10020 kPa, x2 = 0.2315	–	709.17 kg/m3
10020 kPa, x2 = 0.8941	775.22 kg/m3	–
11000 kPa, x2 = 0.3229	–	714.15 kg/m3
11000 kPa, x2 = 0.8941	776.04 kg/m3	767.27 kg/m3
11010 kPa, x2 = 0.1231	672.98 kg/m3	705.72 kg/m3
11010 kPa, x2 = 0.2315	676.62 kg/m3	710.07 kg/m3
11010 kPa, x2 = 0.4272	723.15 kg/m3	719.89 kg/m3
11010 kPa, x2 = 0.7021	–	742.04 kg/m3
11020 kPa, x2 = 0.3229	696.2 kg/m3	–
11020 kPa, x2 = 0.7021	751.07 kg/m3	–
12000 kPa, x2 = 0.1231	674.18 kg/m3	–
12000 kPa, x2 = 0.3229	697.42 kg/m3	–
12010 kPa, x2 = 0.2315	677.87 kg/m3	–
12010 kPa, x2 = 0.3229	–	715.05 kg/m3
12010 kPa, x2 = 0.4272	724.32 kg/m3	–
12010 kPa, x2 = 0.7021	751.91 kg/m3	742.93 kg/m3
12020 kPa, x2 = 0.8941	776.87 kg/m3	–
13000 kPa, x2 = 0.2315	679.08 kg/m3	–
13000 kPa, x2 = 0.4272	725.44 kg/m3	–
13010 kPa, x2 = 0.1231	675.41 kg/m3	–
13010 kPa, x2 = 0.3229	698.65 kg/m3	–
13010 kPa, x2 = 0.8941	777.67 kg/m3	–
13020 kPa, x2 = 0.7021	752.73 kg/m3	–
14000 kPa, x2 = 0.1231	676.57 kg/m3	–
14010 kPa, x2 = 0.2315	680.27 kg/m3	–
14010 kPa, x2 = 0.3229	699.83 kg/m3	–
14010 kPa, x2 = 0.4272	726.63 kg/m3	–
14010 kPa, x2 = 0.8941	778.47 kg/m3	–
14020 kPa, x2 = 0.7021	753.54 kg/m3	–
15010 kPa, x2 = 0.1231	717.43 kg/m3 and 677.73 kg/m3	–
15010 kPa, x2 = 0.2315	681.42 kg/m3 and 721.96 kg/m3	–
15010 kPa, x2 = 0.3229	726.26 kg/m3	–
15010 kPa, x2 = 0.4272	727.76 kg/m3 and 732.14 kg/m3	–
15020 kPa, x2 = 0.3229	700.99 kg/m3	–
15020 kPa, x2 = 0.7021	754.35 kg/m3	–
15020 kPa, x2 = 0.8941	779.28 kg/m3	–
16000 kPa, x2 = 0.8941	780.06 kg/m3	–
16010 kPa, x2 = 0.2315	682.56 kg/m3 and 722.75 kg/m3	–
16010 kPa, x2 = 0.7021	755.14 kg/m3	–
16020 kPa, x2 = 0.1231	718.2 kg/m3	–
16020 kPa, x2 = 0.3229	702.15 kg/m3 and 727.04 kg/m3	–
16020 kPa, x2 = 0.4272	728.86 kg/m3 and 732.94 kg/m3	–
17000 kPa, x2 = 0.4272	729.95 kg/m3 and 733.7 kg/m3	–
17010 kPa, x2 = 0.1231	718.99 kg/m3	–
17010 kPa, x2 = 0.2315	683.64 kg/m3 and 723.54 kg/m3	–
17010 kPa, x2 = 0.3229	727.83 kg/m3	–
17010 kPa, x2 = 0.7021	755.92 kg/m3	–
17010 kPa, x2 = 0.8941	780.82 kg/m3	–
17020 kPa, x2 = 0.1231	679.98 kg/m3	–
17020 kPa, x2 = 0.3229	703.28 kg/m3	–
18000 kPa, x2 = 0.7021	756.69 kg/m3	–
18010 kPa, x2 = 0.1231	719.75 kg/m3	–
18010 kPa, x2 = 0.2315	684.75 kg/m3 and 724.3 kg/m3	–
18010 kPa, x2 = 0.3229	704.37 kg/m3 and 728.61 kg/m3	–
18010 kPa, x2 = 0.4272	734.49 kg/m3	–
18010 kPa, x2 = 0.8941	781.6 kg/m3	–
18020 kPa, x2 = 0.1231	681.03 kg/m3	–
18020 kPa, x2 = 0.4272	731.02 kg/m3	–
19000 kPa, x2 = 0.2315	725.04 kg/m3	–
19000 kPa, x2 = 0.3229	705.41 kg/m3	–
19000 kPa, x2 = 0.7021	757.45 kg/m3	–
19000 kPa, x2 = 0.8941	782.35 kg/m3	–
19010 kPa, x2 = 0.1231	682.1 kg/m3 and 720.5 kg/m3	–
19010 kPa, x2 = 0.2315	685.8 kg/m3	–
19010 kPa, x2 = 0.4272	732.06 kg/m3	–
19020 kPa, x2 = 0.3229	729.37 kg/m3	–
19020 kPa, x2 = 0.4272	735.24 kg/m3	–
20000 kPa, x2 = 0.1231	721.22 kg/m3	–
20010 kPa, x2 = 0.1231	683.05 kg/m3	–
20010 kPa, x2 = 0.2315	686.85 kg/m3	–
20010 kPa, x2 = 0.4272	736 kg/m3	–
20010 kPa, x2 = 0.7021	758.2 kg/m3	–
20010 kPa, x2 = 0.8941	783.1 kg/m3	–
20020 kPa, x2 = 0.2315	725.78 kg/m3	–
20020 kPa, x2 = 0.3229	706.48 kg/m3 and 730.09 kg/m3	–
20020 kPa, x2 = 0.4272	733.04 kg/m3	–

Source: the NIST ThermoML archive (doi:10.1021/acs.jced.8b00554)
